Reference: patent US20030236218A1, “Aryl phosphate derivatives of d4T with selective activity against adenovirus and HIV” (priority 2002, published 2003)
Values after ≈ are worked out from the molar mass of the structure shown. Marks after values point to notes of the source that are not given here.

Legend:
[1] = Pharmacokinetic studies in mice, intravenous administration; format: in vivo, Balb/c mice; conditions: plasma analyte = label, after i.v. 100 mg/kg compound 113
Procedure: Female Balb/c mice (6-8 weeks old) from Taconic (Germantown, N.Y.) were housed in a controlled environment (12-hours of light/12-hours of dark, 22±1° C., 60±10% relative humidity), which is fully accredited by the USDA. All rodents were housed in microisolator cages (Lab Products, Inc., NJ) containing autoclaved bedding. The mice were allowed free access to autoclaved pellet food and tap water throughout the study.
Blood samples (˜500 μL) were obtained from the ocular venous plexus by retro-orbital venipuncture at 0, 2, 5, 10, 15, 30, 45, 60, 120, 240 and 360 minutes after intravenous injection.
All collected blood samples were heparinized and centrifuged at 7000×g for 5 minutes to separate the plasma fraction from the whole blood. The plasma samples were then processed immediately using the extraction procedure described above.
Pharmacokinetic modeling and parameter calculations were carried out using the WinNonlin Professional Version 3.0 (Pharsight, Inc., Mountain, Calif.) pharmacokinetics software (Chen et al., Pharm. Res., 16, 1003 (1999); Chen et al., Pharm. Res., 16, 117 (1999); Chen et al., J. Clin. Pharmacol., 39, 1248 (1999); Uckun et al., Clin. Cancer Res., 5, 2954 (1999); and Uckun et al., J. Pharmacol. Exp. Ther., 291, 1301 (1999)). An appropriate model was chosen on the basis of the lowest sum of weighted squared residuals, the lowest Schwartz Criterion (SC), the lowest Akaike's Information Criterion (AIC) value, the lowest standard errors of the fitted parameters, and the dispersion of the residuals. The elimination half-life was estimated by linear regression analysis of the terminal phase of the plasma concentration-time profile. The area under the concentration-time curve (AUC) was calculated according to the linear trapezoidal rule between the first sampling time (0 hours) and the last sampling time plus C/k, where C is the concentration of the last sampling and k is the elimination rate constant. The systemic clearance (CL) was determined by dividing the dose by the AUC. The metabolic clearance of the parent drug, the formation clearance of the metabolite, the clearance elimination of the metabolite, and the distribution clearance of the metabolite were estimated by simultaneous fitting of the concentration of parent drug and metabolites as a function of time curve to pharmacokinetic models (see FIGS. 7A & 8A) specified as a system of differential equations (Gabrielsson & Weiner, Phamacokinetic/Phamacodynamic Data Analysis: Concepts and Applications, Swedish Pharmaceutical Press (1997)).

[2] = system: adenovirus strain Type 5, strain adenoid 75; test: Adenovirus plaque formation assay in skin fibroblast cell line SF; format: cell-based, human adenovirus; conditions: Adenovirus Type 5, 7 days, ± s.e., read-out: IC50, ADV-induced plaque formation
Text: Virus stocks. The HIV-1 strain used in this study was HTLV-IIIB (Uckun et al., 1998 Antimicro. Agents and Chemother., 42:383-388). The non-HIV viruses included in the present study were the gancyclovir-sensitive cytomegalovirus (CMV) strain AD169 (ATCC VR-538); acyclovir-sensitive herpes simplex virus (HSV) Type I strain HF (ATCC VR-260); acyclovir-sensitive HSV Type II strain G (ATCC VR-734); adenovirus strain Type 5, strain adenoid 75 (ATCC VR-5); enterovirus strain, ECHO 30, strain Bastianni (ATCC VR-322); and respiratory syncytial virus (RSV), strain Long (ATCC VR-26).
Plaque formation assays. Plaque assays were used to examine the activity of the compounds against non-HIV viruses. The skin fibroblast cell line SF (ATCC CRL-2097) was used as a target for AD169, Adenovirus Type 5. […] cell line (ATCC CCL-81) was used as a target for HSV HF and G. The HEP-2 cell line (ATCC CCL-23) was used as a target for the RSV strain Long. These cell lines were cultured at 1×10^5 cells/well in 24-well (all but ECHO 30-infected SF) or 6-well (ECHO 30-infected SF) tissue culture plates with 0.9% methylcellulose or 0.4% SeaPlaque agarose semisolid support. Minimum Essential Medium (MEM) with Earle's salts (Gibco), L-glutamine, non-essential amino acids, 2% heat-inactivated fetal bovine serum, 1% penicillin/streptomycin, and 0.05% gentamicin served as the culture medium. The incubation times were 3 days for HF, G, ECHO 30, and Long; and 7 days for AD169 and Adenovirus Type 5. Plaque counting was performed with a 20X dissecting microscope for AD169, Type 5, ECHO 30, and RSV Long, and with a light box for HF and G. The fixative agent was crystal violet for all viruses, except for the CMV strain AD169 for which methylene blue was used. Percent inhibition of plaque formation was calculated by comparing the plaque numbers from the test substance-treated infected cells with the plaque numbers from untreated infected cells (i.e., virus controls). The IC50 values were determined using the Statview statistics program (SAS Institute, Inc., Cary, N.C.).
Statistical analysis. Each drug was tested at 6-7 different concentrations ranging from 0.0001 μM to 100 μM. Each assay was set up in triplicate wells and repeated 1-3 times. An IC50 value was calculated from each set of triplicate wells using nonlinear regression modeling of the exponential form of the linearized equation (Statview, SAS Institute, Inc., Cary, N.C.). […] The IC50 values obtained were correlated to the log transformed hydrolysis rate constants by fitting a linear model (JMP Software, SAS Institute Inc., Cary, N.C.). P-values less than 0.05 were deemed significant.
The skin fibroblast cell line SF (ATCC CRL-2097) was used as a target for AD169, Adenovirus Type 5, and ECHO 30; the VERO cell line (ATCC CCL-81) was used as a target for HF and G; and the HEP-2 cell line (ATCC CCL-23) was used as target for the RSV strain Long. Results are expressed as the average IC50 values in μM. Stavudine (STV) was included as a control.

[3] = Octanol/water partition coefficient, shake flask method; format: physicochemical; conditions: 4 hours at room temperature
Procedure: HPLC purification was achieved using a reverse-phase Lichrospher column (250×4 mm, Hewlett-Packard, RP-18, Cat. #79925) and an isocratic flow (1 ml/minute) consisting of water (70%) and acetonitrile (30%). Melting points were determined using a Melt John's apparatus and are uncorrected. Column chromatography was performed using silica gel obtained from Baker Company. The octanol/water partition coefficient was determined by the shake flask method. The phosphoramidate analogs were added to 2 ml of water and 2 ml of octanol in a glass vial. The mixture was shaken for 4 hours at room temperature. The two phases were carefully separated and filtered through a Millipore filter and analyzed by HPLC. The partition coefficient was calculated using the ratio of the area under the curve for octanol and water, respectively.

[4] = Hydrolysis rate in alkali conditions; format: physicochemical
Procedure: Statistical analysis. Each drug was tested at 6-7 different concentrations ranging from 0.0001 μM to 100 μM. Each assay was set up in triplicate wells and repeated 1-3 times. An IC50 value was calculated from each set of triplicate wells using nonlinear regression modeling of the exponential form of the linearized equation (Statview, SAS Institute, Inc., Cary, N.C.). Hydrolysis rates were determined by fitting single exponential decay equations to the disappearance of the compound in alkali conditions (all R^2 values greater than 0.85). The IC50 values obtained were correlated to the log transformed hydrolysis rate constants by fitting a linear model (JMP Software, SAS Institute Inc., Cary, N.C.). P-values less than 0.05 were deemed significant.

Solubility = format: physicochemical
[5] = estimate from composite curve of pooled data

Compound | Vss [1, 5] | Vss ([1]; mean ± S.E.M) | IC50 [2] | Oct/Water (log P) [3] | Hydrolysis Rate [4] | Solubility (Solubility)
COC(=O)[C@H](C)NP(=O)(OC[C@@H]1C=C[C@H](n2cc(C)c(=O)[nH]c2=O)O1)Oc1ccc(Br)cc1 (stereo partly shown) | 852.1 mL/kg | (1005.3 ± 134.0) ml/kg |  |  |  | 
COC(=O)[C@H](C)NP(=O)(OCC1C=CC(n2cc(C)c(=O)[nH]c2=O)O1)Oc1ccc(Br)cc1 (stereo partly shown) | 731.1 mL/kg | (791.8 ± 113.1) ml/kg |  |  |  | 
COC(=O)[C@H](C)NP(=O)(OCC1C=CC(n2cc(C)c(=O)[nH]c2=O)O1)Oc1ccc(OC)cc1 (stereo partly shown) [Compound 598, 5′-[4-Methoxyphenyl methoxylaninylphosphate]-2′, 3′-didehydro-3′-deoxy thymidine] |  |  | 555 ± 115 nM | 0.39 | 0.0102 min⁻¹ | 11.9 mg/mL (≈ 24 mM)
COC(=O)[C@H](C)NP(=O)(OCC1C=CC(n2cc(C)c(=O)[nH]c2=O)O1)Oc1cccc(N(C)C)c1 (stereo partly shown) [Compound 599, 5′-[3-Dimethylaminophenyl methoxylaninylphosphate]-2′, 3′-didehydro-3′-deoxy thymidine] |  |  | 230 ± 20 nM | 0.76 | 0.0058 min⁻¹ | 18.0 mg/mL (≈ 35.4 mM)
COC(=O)C(C)NP(=O)(OCC1C=CC(n2cc(C)c(=O)[nH]c2=O)O1)Oc1c(OC)cccc1OC (stereo not shown) [Compound 600, 5′-[2,6-Dimethoxyphenylmethoxyalaninyl phosphate]-2′, 3′-didehydro-3′-deoxy thymidine] |  |  | 290 ± 120 nM | 0.40 | 0.0029 min⁻¹ | 43.6 mg/mL
COC(=O)[C@H](C)NP(=O)(OCC1C=CC(n2cc(C)c(=O)[nH]c2=O)O1)Oc1ccc(C#N)cc1 (stereo partly shown) [Compound 601, 5′-[4-Cyanophenylmethoxyalaninyl phosphate]-2′, 3′-didehydro-3′-deoxy thymidine] |  |  | 575 ± 5 nM | 0.05* | 0.1199 min⁻¹ | 4.0 mg/mL
COC(=O)C(C)NP(=O)(OCC1C=CC(n2cc(C)c(=O)[nH]c2=O)O1)Oc1cccc(Br)c1 (stereo not shown) [Compound 602, 5′-[3-Bromophenylmethoxyalaninyl phosphate]-2′, 3′-didehydro-3′-deoxy thymidine] |  |  | 235 ± 145 nM |  | 0.0338 min⁻¹ | 
COC(=O)C(C)NP(=O)(OCC1C=CC(n2cc(C)c(=O)[nH]c2=O)O1)Oc1ccc(Br)cc1Cl (stereo not shown) [Compound 603, 5′-[4-Bromo-2-chlorophenylmethoxyalaninyl phosphate]-2′, 3′-didehydro-3′-deoxy thymidine] |  |  | 80 ± 10 nM | 1.81 | 0.1500 min⁻¹ | 1.8 mg/mL
COC(=O)[C@H](C)NP(=O)(OCC1C=CC(n2cc(C)c(=O)[nH]c2=O)O1)Oc1ccc(F)cc1 (stereo partly shown) [Compound 604, 5′-[4-Flurophenylmethoxyalaninyl phosphate]-2′, 3′-didehydro-3′-deoxy thymidine] |  |  | 100 ± 40 nM | 0.54 | 0.0117 min⁻¹ | 7.5 mg/mL
COC(=O)C(C)NP(=O)(OCC1C=CC(n2cc(C)c(=O)[nH]c2=O)O1)Oc1ccccc1Br (stereo not shown) [Compound 605, 5′-[2-Bromophenylmethoxyalaninyl phosphate]-2′, 3′-didehydro-3′-deoxy thymidine] |  |  | 38.5 ± 22 nM | 0.95 | 0.0336 min⁻¹ | 4.2 mg/mL
COC(=O)C(C)NP(=O)(OCC1C=CC(n2cc(C)c(=O)[nH]c2=O)O1)Oc1ccccc1Cl (stereo not shown) [Compound 606, 5′-[2-Chlorophenylmethoxyalaninyl phosphate]-2′, 3′-didehydro-3′-deoxy thymidine] |  |  | 28.5 ± 12 nM | 0.84 | 0.0370 min⁻¹ | 7.3 mg/mL
COC(=O)[C@H](C)NP(=O)(OCC1C=CC(n2cc(C)c(=O)[nH]c2=O)O1)Oc1ccccc1 (stereo partly shown) [Compound 607, 5′-[Phenyl methoxylaninylphosphate]-2′, 3′-didehydro-3′-deoxy thymidine] |  |  | 57.5 ± 23 nM | 0.38 | 0.0082 min⁻¹ | 44.7 mg/mL (≈ 96 mM)
COC(=O)C(C)NP(=O)(OCC1C=CC(n2cc(C)c(=O)[nH]c2=O)O1)Oc1cc(Cl)ccc1Cl (stereo not shown) [Compound 608, 5′-[2,5-Dichlorophenylmethoxyalaninyl phosphate]-2′, 3′-didehydro-3′-deoxy thymidine] |  |  | 33 ± 17 nM | 1.41 | 0.1840 min⁻¹ | 3.7 mg/mL
